The target in assay [1] is 5-hydroxytryptamine receptor 2B (Homo sapiens, UniProt P41595).
In assay [2] the target is T1, Type-2 angiotensin II receptor (Homo sapiens, UniProt P50052).
T1 sequence (P50052 whole entry): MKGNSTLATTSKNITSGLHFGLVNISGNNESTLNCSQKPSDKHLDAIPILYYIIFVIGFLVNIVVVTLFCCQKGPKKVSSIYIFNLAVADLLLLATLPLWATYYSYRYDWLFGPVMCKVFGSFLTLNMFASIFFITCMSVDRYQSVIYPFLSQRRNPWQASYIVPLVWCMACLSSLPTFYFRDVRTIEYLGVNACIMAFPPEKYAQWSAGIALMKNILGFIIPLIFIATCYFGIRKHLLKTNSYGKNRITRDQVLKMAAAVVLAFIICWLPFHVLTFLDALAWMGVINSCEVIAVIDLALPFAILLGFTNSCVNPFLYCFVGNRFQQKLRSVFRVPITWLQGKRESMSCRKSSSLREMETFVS
The assay is classed as functional.

For assay [3], the target named is T2, Prostaglandin G/H synthase 1 (Rattus norvegicus, UniProt Q63921).
T2 sequence (Q63921 whole entry): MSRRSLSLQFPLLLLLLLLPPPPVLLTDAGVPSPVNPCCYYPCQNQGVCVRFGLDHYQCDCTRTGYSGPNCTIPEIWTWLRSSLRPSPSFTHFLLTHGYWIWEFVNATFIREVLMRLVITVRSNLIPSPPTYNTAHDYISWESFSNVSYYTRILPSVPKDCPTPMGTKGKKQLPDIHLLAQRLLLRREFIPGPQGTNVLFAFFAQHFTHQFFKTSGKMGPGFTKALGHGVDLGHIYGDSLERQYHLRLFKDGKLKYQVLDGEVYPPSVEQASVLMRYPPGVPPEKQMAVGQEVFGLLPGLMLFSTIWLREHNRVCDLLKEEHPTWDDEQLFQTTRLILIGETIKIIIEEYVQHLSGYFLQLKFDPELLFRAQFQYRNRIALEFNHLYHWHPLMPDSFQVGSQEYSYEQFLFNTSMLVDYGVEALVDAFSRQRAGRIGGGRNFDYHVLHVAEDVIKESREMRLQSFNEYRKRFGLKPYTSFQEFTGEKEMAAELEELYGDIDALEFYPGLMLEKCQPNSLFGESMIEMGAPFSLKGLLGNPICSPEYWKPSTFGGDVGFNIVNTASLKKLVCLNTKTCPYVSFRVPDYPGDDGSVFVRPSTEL
The assay is classed as functional.
Note: assay procedure not described here.

5-hydroxytryptamine receptor 2B, sequence (P41595 whole entry): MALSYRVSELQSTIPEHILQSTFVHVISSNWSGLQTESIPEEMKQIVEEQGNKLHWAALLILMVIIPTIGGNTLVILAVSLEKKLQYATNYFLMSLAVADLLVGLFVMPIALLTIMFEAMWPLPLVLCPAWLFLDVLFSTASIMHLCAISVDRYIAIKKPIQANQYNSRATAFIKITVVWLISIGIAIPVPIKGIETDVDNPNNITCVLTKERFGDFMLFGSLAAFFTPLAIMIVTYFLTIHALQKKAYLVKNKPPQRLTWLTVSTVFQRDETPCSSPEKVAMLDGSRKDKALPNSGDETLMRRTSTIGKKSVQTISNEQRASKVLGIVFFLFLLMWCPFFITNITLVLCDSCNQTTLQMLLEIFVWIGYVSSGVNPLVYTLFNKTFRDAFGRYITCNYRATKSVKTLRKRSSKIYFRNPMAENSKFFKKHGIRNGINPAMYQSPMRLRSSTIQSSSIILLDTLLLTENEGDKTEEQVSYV

As to `CCCN1C[C@H](CSC)C[C@@H]2c3cccc4[nH]cc(c34)C[C@H]21` [PERGOLIDE], the concentration at half-maximal activity (AC50) (as a rule, the concentration at which the activity in the assay is half-maximal) in assay [1] is 0.0084 µM.
Turning to `C1CCC(C(CC2CCCCN2)C2CCCCC2)CC1` (stereo not drawn) [PERHEXILINE], the AC50 in assay [2] is above 100 µM.
`O=C(O[C@H]1C[C@H]2CC[C@@H](C1)[N+]21CCCC1)C(O)(c1ccccc1)c1ccccc1` [TROSPIUM]: the half-maximal activity concentration (AC50) in assay [3] was above 30 µM.

The record behind these values is ChEMBL document CHEMBL5291721, “A preclinical secondary pharmacology resource illuminates target-adverse drug reaction associations of marketed drugs” (Nat Commun, 2023).
